Experimental data: US5362634A, “Process for producing A83543 compounds” (DowElanco, priority 1991, dated 1994)

Tests used:
[1] = test system: Spodoptera eridania; assay: Outdoor pot tests against Southern armyworm; type: in vivo
From the text: Table XV compares the effectiveness and persistence of A83543A treatment with that of methomyl in outdoor pot tests against Southern armyworm.

[2] = test system: neonate CBW (cotton bollworm) larvae; assay: Topical test against neonate CBW larvae; type: in vivo, Heliothis zea; details: 24 h, 1 day
Description: Each test compound was formulated by dissolving the compound in an acetone/alcohol (1:1) mixture containing 23 g of "Toximul R" (sulfonate/nonionic emulsifier blend) and 13 g of "Toximul S" (sulfonate/nonionic emulsifier blend) per liter. These mixtures were then diluted with water to give the indicated concentrations.
Additional insects were evaluated using similar formulations and evaluation procedures, with the exceptions noted.
After standard exposure periods, percent mortality was evaluated. The following abbreviations are used:
^b Mean of two replicates tested
^c Treated with 1 mL of formulated A83543A

[3] = test system: adult stable fly; assay: In vitro efficacy against adult stable fly; details: Stomoxys calcitrans
From the text: Tables XIX-XXI summarize in vitro studies with A83543A and A83543D.

[4] = test system: Haemonchus contortus; assay: In vitro test against sheep intestinal nematode; details: read-out: worms killed
From the text: In in vitro tests against the sheep intestinal nematode Haemonchus contortus, A83543A killed 30% of the worms at a concentration of 100 ppm.

[5] = test system: guinea pigs; assay: Toxicity to the host animal, guinea pig systemic test; type: in vivo; set-up: key: N: none
Description: Adult guinea pigs are used in this test system. The compounds to be tested are dissolved in aqueous polyvinyl pyrrolidone or in polyethylene glycol 200, and an appropriate amount of the solution is administered either orally or by intraperitoneal injection.
Blood is drawn from the guinea pigs at 30 minutes except as noted, and the samples of blood are centrifuged. Dental wicks are saturated with the blood serum, and then exposed in Petri dishes to adult stable flies; blow fly larvae are exposed in test tubes. After 24 and 48 hours, the insects are examined, and the number of dead are counted. The results of the tests are recorded as the percent of the insects which are killed.

`CC[C@H]1CCC[C@H](O[C@H]2CC[C@H](N(C)C)[C@@H](C)O2)[C@@H](C)C(=O)C2=C[C@@H]3[C@@H](C=C[C@@H]4C[C@@H](O[C@@H]5O[C@@H](C)[C@H](OC)[C@@H](OC)[C@H]5OC)C[C@@H]34)[C@@H]2CC(=O)O1` [A83543A] was tested, and the mortality at 63 ppm ([1]; 24 h, 1 day after treatment) was 100%, the mortality at 125 ppm ([1]; 24 h, 1 day after treatment) was 100% and the mortality at 250 ppm ([1]; 24 h, 1 day after treatment) was 100%. The mortality at 500 ppm ([1]; 24 h, 1 day after treatment) was 100%, the mortality at 63 ppm ([1]; 120 h, 5 days after treatment) was 88% and the mortality at 125 ppm ([1]; 120 h, 5 days after treatment) was 88%. The mortality at 250 ppm ([1]; 120 h, 5 days after treatment) was 95%, the mortality at 500 ppm ([1]; 120 h, 5 days after treatment) was 100% and the mortality at 63 ppm ([1]; 168 h, 7 days after treatment) was 90%. It also gave a mortality at 125 ppm ([1]; 168 h, 7 days after treatment) of 95%, a mortality at 250 ppm ([1]; 168 h, 7 days after treatment) of 100% and a mortality at 500 ppm ([1]; 168 h, 7 days after treatment) of 100%. It also gave a mortality at 63 ppm ([1]; 336 h, 14 days after treatment) of 5%, a mortality at 125 ppm ([1]; 336 h, 14 days after treatment) of 90% and a mortality at 250 ppm ([1]; 336 h, 14 days after treatment) of 100%. For the same compound, the mortality at 500 ppm ([1]; 336 h, 14 days after treatment) was 100%, the inhibition at 0.5 ppm ([2]; 0.50 ppm, second series) was 10% and the inhibition at 1 ppm ([2]; first series, mean of two replicates) was 20%. For the same compound, the inhibition at 1 ppm ([2]; second series) was 40%, the inhibition at 5 ppm ([2]; first series) was 100% and the inhibition at 5 ppm ([2]; second series) was 80%. The inhibition at 10 ppm ([2]; first series) was 100%, the inhibition at 10 ppm ([2]; second series) was 100% and the inhibition at 50 ppm ([2]; first series) was 100%. It also gave an inhibition at 50 ppm ([2]; second series) of 100%, an inhibition at 100 ppm ([2]; first series) of 100% and an inhibition at 100 ppm ([2]; second series) of 70%. For the same compound, the mortality at 0.5 ppm ([3]; 24 hour) was 0%, the mortality at 0.5 ppm ([3]; 48 hour) was 10% and the mortality at 1 ppm ([3]; 24 hour) was 10%. For the same compound, the mortality at 1 ppm ([3]; 48 hour) was 60%, the mortality at 2 ppm ([3]; 24 hour) was 70% and the mortality at 2 ppm ([3]; 48 hour) was 90%. The mortality at 5 ppm ([3]; 24 hour) was 80%, the mortality at 5 ppm ([3]; 48 hour) was 100% and the mortality at 10 ppm ([3]; 24 hour) was 100%. It also gave a mortality at 10 ppm ([3]; 48 hour) of 90%, a mortality at 25 ppm ([3]; 24 hour) of 100% and a mortality at 25 ppm ([3]; 48 hour) of 100%. For the same compound, the mortality at 50 ppm ([3]; 24 hour) was 100%, the mortality at 50 ppm ([3]; 48 hour) was 100% and the mortality at 100 ppm ([3]; 24 hour) was 100%. The mortality at 100 ppm ([3]; 48 hour) was 100%, the killing at 100 ppm [4] was 30% and the Tox ([5]; 10 mg/kg IP) was “N”. For the same compound, the Tox ([5]; 20 mg/kg IP) was “N”, the Tox ([5]; 30 mg/kg IP) was “N” and the Tox ([5]; 50 mg/kg IP) was “N”. For the same compound, the Tox ([5]; 50 mg/kg OR (oral)) was “N”.
